Assays:
Huh-7 cells = assay: MTT assay, cell viability of Huh-7 cells; assay type: cell-based; conditions: Homo sapiens, Huh-7, read-out: Huh-7 IC50
Source text: (§1) 2. The anti-proliferation of compound 5 on Huh-7 cells
(§2) We tested another hepatoma cell line (Huh-7) to validate effect of compound 5. L02 (normal hepatocytes), HepG2 and Hub-7 cells were used to discuss the effect of 5. […]
(§3) of 5 on Huh-7 cell was (24.49±[…]) μM (Table S1). The morphology and apoptosis of the cells by reversed microscope and flow cytometry, respectively.
(§4) Second, the expression and phosphorylation of ATP1A1 were detected by Western blot analysis in L02, HepG2 and Huh-7 cells. Compared with L02 group, the expression of ATP1A1 was higher in HepG2 and Huh-7 cells, but there was no significant difference in the phosphorylation of ATP1A1 (Figure […]
(§5) At last, the effect of 5 on the expression and the phosphorylation of ATP1A1 in Huh-7 cells was […]
(§6) the phosphorylation of ATP1A1. The result was consistent with that observed in HepG2 cells (Figure […]
(§7) Table S1 Cell viability of Huh-7 cell treated by compound 5

ATP1A1 = ATP1A1 (Homo sapiens, UniProt P05023); assay: Western blot of ATP1A1 in Huh-7 cells; assay type: cell-based; design: endogenous in cells
Source text: as §1, §2, §3, §4, §5, §6, §7
Figure S2 Compound 5 inhibited the proliferation and the level of ATP1A1 protein in Huh-7 cells L5, low concentration of 5 (12.5 μmol-1 ); H5, high concentration of 5 (25 μmol-1). […] (B) Image of cell apoptosis in Huh-7 cells was detected by flow cytometry. The cells were double stained with Annexin V and PI. […] Data are expressed as the mean ± standard deviation (n=3). *p<0.05, **p<0.01, ***p<0.001 vs. the control group. […]

## C[C@H](O)[C@]1(O)CC[C@@]2(O)[C@]1(C)[C@H](OC(=O)/C=C/c1ccccc1)C[C@@H]1[C@@]3(C)CC[C@H](O[C@H]4C[C@H](O)[C@H](O)[C@@H](C)O4)CC3=CC[C@]12O [Compound 5, Cynsaccatol L]
Huh-7 cells
  IC50: 24.5 ± 2.33 µM
ATP1A1
  level of ATP1A1 in Huh-7: reduced
